The target of this assay is MCH receptor (Macaca fascicularis, UniProt A0A2K5VT41). Kind of assay: Calcium mobilization assay (Example 6). The format is cell-based, Cynomolgus macaque. An excerpt: This Example illustrates a representative functional assay for monitoring the response of cells expressing melanin concentrating hormone receptors to melanin concentrating hormone. This assay can also be used to determine if test compounds act as agonists or antagonists of melanin concentrating hormone receptors.
Chinese Hamster Ovary (CHO) cells (American Type Culture Collection; Manassas, Va.) are stably transfected with the MCH expression vector via calcium phosphate precipitation, and are grown to a density of 15,000 cells/well in FALCON™ black-walled, clear-bottomed 96-well plates (#3904, BECTON-DICKINSON, Franklin Lakes, N.J.) in Ham's F12 culture medium (MEDIATECH, Herndon, Va.) supplemented with 10% fetal bovine serum, 25 mM HEPES and 500 μg/mL (active) G418. Prior to running the assay, the culture medium is emptied from the 96 well plates. […]
Fluorescence response is monitored upon the addition of either […] or test compound by a FLIPR™ plate reader (Molecular Devices, Sunnyvale, Calif.) by excitation at 480 nm and emission at 530 nm.
In order to measure the ability of a test compound to antagonize the response of cells expressing MCH receptors to MCH, the EC50 of MCH is first determined. […]
Test compounds are dissolved in DMSO, diluted in 20 μL KRH buffer, and added to cells prepared as described above. […] Just prior to determining the fluorescence response, 100 μL human MCH diluted in KRH buffer to 2×EC50 is automatically added by the FLIPR instrument to each well of the 96 well plate for a final sample volume of 200 μL and a final MCH concentration of EC50. […] Typically, antagonists of the MCH receptor decrease the fluorescence response by about 20%, preferably by about 50%, and most preferably by at least 80% as compared to matched controls. IC50 values for MCHR antagonists are determined using SIGMAPLOT software (SPSS Inc., Chicago, Ill.) and standard techniques. […]

Like-named read-outs stand apart in the source and are kept apart here.

Sequence of MCH receptor (A0A2K5VT41 70-422): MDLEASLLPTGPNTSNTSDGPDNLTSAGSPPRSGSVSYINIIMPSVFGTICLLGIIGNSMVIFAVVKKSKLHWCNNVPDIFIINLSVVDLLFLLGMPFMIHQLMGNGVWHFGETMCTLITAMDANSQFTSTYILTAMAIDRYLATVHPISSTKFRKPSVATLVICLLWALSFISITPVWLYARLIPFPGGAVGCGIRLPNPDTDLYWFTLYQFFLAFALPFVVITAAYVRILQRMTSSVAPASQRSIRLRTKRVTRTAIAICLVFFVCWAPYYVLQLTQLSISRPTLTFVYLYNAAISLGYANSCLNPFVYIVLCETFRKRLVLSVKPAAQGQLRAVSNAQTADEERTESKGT

Broadly, the EC50 is the concentration that produces a half-maximal response. For `COc1cc(N2CCN(C(C)c3ccnc(C)c3C)CC2)ccc1Cl` (stereo not drawn) [Example 1, 1-(4-chloro-3-methoxyphenyl)-4-[1-(2,3-dimethylpyridin-4-yl)-ethyl]-piperazine], the EC50 is less than 1000 nM. In the case of `COc1cc(N2CCN(C(C)c3ccnc4ccccc34)CC2)ccc1Cl` (stereo not drawn) [Example 2, 4-{1-[4-(4-chloro-3-methoxyphenyl)piperazin-1-yl]ethyl}quinoline], the EC50 is less than 1000 nM. For `Cc1nccc(CN2CCC(O)(c3ccc(Cl)c(C(F)(F)F)c3)CC2)c1C` [Example 3, 4-(4-chloro-3-trifluoromethylphenyl)-1-(2,3-dimethyl-pyridin-4-ylmethyl)-piperidin-4-ol], for the setting “calcium mobilization (FLIPR, Fluo-3) in CHO cells stably transfected with the MCH expression vector, read-out: EC50, determined as described in Example 6”, the 50% effective concentration (EC50) is less than 1000 nM.

Values taken from patent US20050239791A1, “Substituted 1-heteroaryl-4-substituted piperazine and piperidine analogues” (priority 2004, published 2005).
